Data reported in patent publication US7078222B2, “Microorganism for producing riboflavin and method for producing riboflavin using the same” (CJ Corp., priority 2002, dated 2006).

What was measured:
Bacillus subtilis AS5 = experiment: Evaluation of resistance against DL-β-hydroxynorvaline (growth in DL-β-hydroxynorvaline-containing minimal medium); type: cell-based; design: key to growth of strain: +: growth; −: not growth; details: for growth of strain: 30° C., 5 days
Description: (§1) In this example, in order to evaluate resistance to DL-β-hydroxynorvaline, the Bacillus subtilis CJKB0002 (KCCM-10446) of Example 1 and the Bacillus subtilis AS5 as the parent strain were cultured in various concentrations of DL-β-hydroxynorvaline-containing media. In detail, respective strains were inoculated onto DL-β-hydroxynorvaline-containing media as shown in Table 1 and cultured at 30° C. for 5 days. In this case, the concentration of DL-β-hydroxynorvaline ranged from 0 to 350 mg/l.

[1] = tested on: Bacillus subtilis CJKB0002 (KCCM-10446); experiment: as above; type: cell-based; design: key to growth of strain: +: growth; −: not growth; details: for growth of strain: 30° C., 5 days
Description: as §1

In the case of `CCC(O)C(N)C(=O)O` (racemic) [DL-β-hydroxynorvaline], the growth of strain (Bacillus subtilis AS5; 50 mg/l DL-β-hydroxynorvaline) is reported as “+”, the growth of strain (Bacillus subtilis AS5; 100 mg/l DL-β-hydroxynorvaline) is reported as “−” and the growth of strain (Bacillus subtilis AS5; 200 mg/l DL-β-hydroxynorvaline) is reported as “−”. For the same molecule, the growth of strain (Bacillus subtilis AS5; 250 mg/l DL-β-hydroxynorvaline) was “−”, the growth of strain (Bacillus subtilis AS5; 300 mg/l DL-β-hydroxynorvaline) was “−” and the growth of strain (Bacillus subtilis AS5; 350 mg/l DL-β-hydroxynorvaline) was “−”. The “concentration of DL-β-hydroxynorvaline in which the strain cannot grow” value (Bacillus subtilis AS5; parent strain AS5) was “more than 50 mg/l”, the growth of strain ([1]; 250 mg/l DL-β-hydroxynorvaline) was “+” and the growth of strain ([1]; 300 mg/l DL-β-hydroxynorvaline) was “−”. The growth of strain ([1]; 350 mg/l DL-β-hydroxynorvaline) was “−”, the “enhanced resistance to threonine analogue compared to Bacillus subtilis AS5” value ([1]; CJKB0002 versus AS5) was “five times” and the “concentration of DL-β-hydroxynorvaline in which the strain can grow” value ([1]; mutant CJKB0002) was ≤ 250 mg/L.
